Test results published in ChEMBL document CHEMBL1201862, “PubChem BioAssay data set” (2004).
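Interpolation was linear, between the two tested concentrations surrounding the appropriate level; five concentrations were tested over 48 hours in 96-well plates. At the GI50, growth is halved.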 Activity calls are given as the source filed them. Cut-off read from the data, not from the text of the source: active = GI50 up to about 1.1 µM and inactive = higher.

Assays:
Assay in all cases: NCI tumour cell line growth inhibition, 48 h
U-251 = tested on: U-251
HCT-15 = tested on: HCT-15
IGROV-1 = tested on: IGROV-1
MDA-MB-231 = tested on: MDA-MB-231
NCI-H522 = tested on: NCI-H522
COLO 205 = tested on: COLO 205
SNB-75 = tested on: SNB-75
M14 = tested on: M14
T47D = tested on: T47D
MCF7 = tested on: MCF7
Malme-3M = tested on: Malme-3M
DU-145 = tested on: DU-145
NCI-H226 = tested on: NCI-H226
SK-OV-3 = tested on: SK-OV-3
NCI-H23 = tested on: NCI-H23
MOLT-4 = tested on: MOLT-4
SF-268 = tested on: SF-268
MDA-MB-435 = tested on: MDA-MB-435
MDA-N = tested on: MDA-N
CCRF-CEM = tested on: CCRF-CEM
A549 = tested on: A549
A498 = tested on: A498
HOP-92 = tested on: HOP-92
786-0 = tested on: 786-0
KM12 = tested on: KM12
OVCAR-3 = tested on: OVCAR-3
SF-295 = tested on: SF-295
UACC-257 = tested on: UACC-257
HCC 2998 = tested on: HCC 2998
Hs-578T = tested on: Hs-578T
UO-31 = tested on: UO-31
SK-MEL-28 = tested on: SK-MEL-28
HL-60 = tested on: HL-60
EKVX = tested on: EKVX
NCI-H460 = tested on: NCI-H460
ACHN = tested on: ACHN
HCT-116 = tested on: HCT-116
UACC-62 = tested on: UACC-62
SF-539 = tested on: SF-539
K562 = tested on: K562
BT-549 = tested on: BT-549
PC-3 = tested on: PC-3
RXF 393 = tested on: RXF 393
SNB-19 = tested on: SNB-19
TK-10 = tested on: TK-10
OVCAR-5 = tested on: OVCAR-5
SK-MEL-5 = tested on: SK-MEL-5
HOP-62 = tested on: HOP-62
CAKI-1 = tested on: CAKI-1
OVCAR-4 = tested on: OVCAR-4
HT-29 = tested on: HT-29
SK-MEL-2 = tested on: SK-MEL-2
NCI/ADR-RES = tested on: NCI/ADR-RES
LOX IMVI = tested on: LOX IMVI
OVCAR-8 = tested on: OVCAR-8
SN12C = tested on: SN12C
SW-620 = tested on: SW-620
RPMI-8226 = tested on: RPMI-8226
SR = tested on: SR

Measured: GI50

Cc1ccc(S(=O)(=O)CN2C(=O)C(c3ccccc3)(c3ccccc3)C23OC(c2ccc(Cl)cc2)=CC3=O)cc1 (centres undefined)
> 10 µM: HCT-15
inactive: U-251 > 10 µM | IGROV-1 > 10 µM | MDA-MB-231 > 10 µM | NCI-H522 > 10 µM | COLO 205 > 10 µM | SNB-75 > 10 µM | M14 > 10 µM | T47D > 10 µM | MCF7 > 10 µM | Malme-3M > 10 µM | DU-145 > 10 µM | NCI-H226 > 10 µM | SK-OV-3 > 10 µM | NCI-H23 > 10 µM | MOLT-4 > 10 µM | SF-268 > 10 µM | MDA-MB-435 > 10 µM | MDA-N > 10 µM | CCRF-CEM > 10 µM | A549 > 10 µM | A498 > 10 µM | HOP-92 > 10 µM | 786-0 > 10 µM | KM12 > 10 µM | OVCAR-3 > 10 µM | SF-295 > 10 µM | UACC-257 > 10 µM | HCC 2998 > 10 µM | Hs-578T > 10 µM | UO-31 > 10 µM | SK-MEL-28 > 10 µM | HL-60 > 10 µM | EKVX > 10 µM | NCI-H460 > 10 µM | ACHN > 10 µM | HCT-116 > 10 µM | UACC-62 > 10 µM | SF-539 > 10 µM | K562 > 10 µM | BT-549 > 10 µM | PC-3 4.07 µM | RXF 393 > 10 µM | SNB-19 > 10 µM | TK-10 > 10 µM | OVCAR-5 > 10 µM | SK-MEL-5 > 10 µM | HOP-62 > 10 µM | CAKI-1 > 10 µM | OVCAR-4 > 10 µM | HT-29 > 10 µM | SK-MEL-2 > 10 µM | NCI/ADR-RES > 10 µM | LOX IMVI > 10 µM | OVCAR-8 > 10 µM | SN12C > 10 µM | SW-620 > 10 µM

Cn1c2ccccc2c(=O)c2cccc(C(=O)NCC(=O)O)c21
inactive: U-251 > 100 µM | IGROV-1 85.1 µM | MDA-MB-231 > 100 µM | COLO 205 > 100 µM | SNB-75 88.9 µM | M14 > 100 µM | T47D > 100 µM | RPMI-8226 > 100 µM | MCF7 > 100 µM | Malme-3M > 100 µM | DU-145 > 100 µM | SR > 100 µM | NCI-H226 85.9 µM | SK-OV-3 > 100 µM | NCI-H23 > 100 µM | MOLT-4 > 100 µM | SF-268 > 100 µM | MDA-MB-435 > 100 µM | MDA-N > 100 µM | A549 > 100 µM | 786-0 > 100 µM | KM12 > 100 µM | OVCAR-3 > 100 µM | SF-295 > 100 µM | UACC-257 > 100 µM | HCC 2998 > 100 µM | Hs-578T > 100 µM | UO-31 > 100 µM | SK-MEL-28 > 100 µM | EKVX 36.8 µM | NCI-H460 > 100 µM | ACHN > 100 µM | HCT-116 > 100 µM | UACC-62 > 100 µM | SF-539 > 100 µM | K562 > 100 µM | BT-549 > 100 µM | PC-3 > 100 µM | SNB-19 > 100 µM | TK-10 > 100 µM | OVCAR-5 > 100 µM | SK-MEL-5 > 100 µM | HOP-62 > 100 µM | OVCAR-4 > 100 µM | HT-29 > 100 µM | SK-MEL-2 > 100 µM | NCI/ADR-RES 60.3 µM | LOX IMVI 71.3 µM | OVCAR-8 > 100 µM | SN12C > 100 µM | SW-620 > 100 µM
> 100 µM: HCT-15
